Source: paper PMC3962378, “Molecular Mechanism of Strict Substrate Specificity of an Extradiol Dioxygenase, DesB, Derived from Sphingobium sp. SYK-6” (PLoS ONE, 2014)

Biological target: T1, DesB (Sphingomonas paucimobilis, UniProt Q5NTE5)
T1 construct: overexpressed in E. coli, purified to near homogeneity; swapped homodimer with active sites at the subunit interface; 418 residues; Fe(II) form
T1 sequence (Q5NTE5 1-418): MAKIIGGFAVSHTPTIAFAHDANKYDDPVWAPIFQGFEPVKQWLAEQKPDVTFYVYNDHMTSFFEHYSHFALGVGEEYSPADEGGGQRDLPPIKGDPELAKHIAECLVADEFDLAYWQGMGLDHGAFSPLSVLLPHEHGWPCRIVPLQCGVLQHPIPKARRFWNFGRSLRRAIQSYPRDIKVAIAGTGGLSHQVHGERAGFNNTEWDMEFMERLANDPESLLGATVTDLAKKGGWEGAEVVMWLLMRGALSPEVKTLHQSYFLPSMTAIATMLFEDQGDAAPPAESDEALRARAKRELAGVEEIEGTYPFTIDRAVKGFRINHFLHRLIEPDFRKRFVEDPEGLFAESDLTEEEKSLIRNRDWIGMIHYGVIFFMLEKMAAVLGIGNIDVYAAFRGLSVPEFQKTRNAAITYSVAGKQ
Assay: X-ray crystal structure (soak)
Format: binding
Details: anaerobic, pH 7.75, Fe(II), active site, 2.40 A

SMILES	X-ray crystal structure (soak) (10 mM PCA soak, flipped non-productive binding, not turned over)	X-ray crystal structure (soak) (10 mM gallate soak, further complexes 3WKU, 3WPM (co-crystal), 3WR3, 3WR4)
O=C(O)c1ccc(O)c(O)c1 [PCA]	bound PCA was found in the active site of the anaerobic DesB-PCA complex	–
O=C(O)c1cc(O)c(O)c(O)c1 [gallate]	–	gallate is bound to the active site through several hydrogen bonds
